Legend:
[1] = tested on: allergic rhinitis; assay: Allergic rhinitis animal model: frequency of sneezing and nasal rubbing; type: in vivo, Mice (BALB/c)
From the text: Drug Efficacy Evaluation for Allergic Rhinitis in Animals 1. Species: Mice. 2. Strain: BALB/c. 8. Number of animals: The animals were divided into 5 groups, 4 to 5 animals per group, a total of 24 animals. [table] 1. The frequency of sneezing and nasal rubbing of the mice was observed once per week.

[2] = tested on: IL-9; assay: Cytokines in nasal irrigation solution, allergic rhinitis animal model: IL-9; type: in vivo; conditions: BALB/c mice, in comparison with the disease group, increasing amount of SAC
Description: (§1) 3. All animals were sacrificed at the end of the 4th week after being given the tested material, their nasal cavities were rinsed 3 times with 1 ml of physiological saline solution, then nasal irrigation solution was collected, centrifuged at 1000 rpm for 5 minutes at 4° C. to collect the supernatant solution, then store at −80° C. for preservation.

[3] = tested on: IL-6; assay: Cytokines in nasal irrigation solution, allergic rhinitis animal model: IL-6; type: in vivo; conditions: BALB/c mice, in comparison with the disease group, increasing amount of SAC
Description: as §1

[4] = Conversion of effective amount from mouse to human by conversion factor W; conditions: converted from the mouse amount with conversion factor W 0.11
Description: For example, when being administered into a mouse, an effective amount of SAC is at least approximately 25 mg/kg; more preferably, an effective amount of SAC is approximately from 25 mg/kg to 100 mg/kg. When being administered into a person, an effective amount of SAC is at least approximately 2.75 mg/kg; more preferably, an effective amount is approximately from 2.75 mg/kg to 11 mg/kg. The conversion of an effective amount from animal to animal can be easily calculated by those skilled in the art based on known knowledge. For example, when an effective amount per kg for animal A is known and an effective amount per kg for animal B is to be calculated, look up table 1 first to find the conversion factor (W), then calculate as follows: An effective amount for animal B (mg/kg)=W×an effective amount for animal A (mg/kg) For example, in one of the examples of this disclosure, an effective amount of SAC being administered into a mouse was 25 mg/kg, which needs to be converted into an effective amount for a human. Animal A is a mouse and animal B is a human, the crossing point which is the conversion factor W is 0.11, therefore an effective amount for a human is 0.11×25 mg/kg=2.75 mg/kg. [table]

[5] = BALB/c mice, SAC 25, 50, 100 mpk p.o. twice per day, in comparison to the disease group

## C=CCSC[C@H](N)C(=O)O [SAC, S-allyl-L-Cysteine]
[1]; [5]
  frequency of nasal rubbing: tended to decline
  frequency of sneezing: tended to decline
[1]; mouse, in one of the examples
  effective amount administered into a mouse: 25 mg/kg
[2]
  level of IL-9 in nasal irrigation solution: decreased
[3]
  level of IL-6 in nasal irrigation solution: decreased
[4]
  effective amount for a human: 2.75 mg/kg
